In ChEMBL document CHEMBL4190297, “Cafestol, a Bioactive Substance in Coffee, Has Antidiabetic Properties in KKAy Mice” (J Nat Prod, 2017):
Active and inactive are the calls of the source. The calls are words filed in the database; no cut-off is given here.

Experiments:
Mus musculus [1] = species: Mus musculus; experiment: Effect on Gcgr mRNA expression levels in muscle of KK-Ay diabetic mouse model at 0.4 to 1.1 mg added daily to normal chow pellets for 10 weeks by qRT-PCR analysis; type: functional, organism-based
Mus musculus [2] = species: Mus musculus; experiment: Effect on Acaca mRNA expression levels in muscle of KK-Ay diabetic mouse model at 0.4 to 1.1 mg added daily to normal chow pellets for 10 weeks by qRT-PCR analysis; type: functional, organism-based
Mus musculus [3] = species: Mus musculus; experiment: Effect on GYS2 mRNA expression levels in liver of KK-Ay diabetic mouse model at 0.4 to 1.1 mg added daily to normal chow pellets for 10 weeks by qRT-PCR analysis; type: functional, organism-based
Mus musculus [4] = species: Mus musculus; experiment: Effect on FAS mRNA expression levels in adipose tissue of KK-Ay diabetic mouse model at 0.4 to 1.1 mg added daily to normal chow pellets for 10 weeks by qRT-PCR analysis; type: functional, organism-based
Mus musculus [5] = species: Mus musculus; experiment: Effect on LXRalpha mRNA expression levels in adipose tissue of KK-Ay diabetic mouse model at 0.4 to 1.1 mg added daily to normal chow pellets for 10 weeks by qRT-PCR analysis; type: functional, organism-based
Mus musculus [6] = species: Mus musculus; experiment: Effect on water-fat fraction in liver of KK-Ay diabetic mouse model at 0.4 to 1.1 mg added daily to normal chow pellets for 10 weeks by MR spectroscopic analysis; type: functional, organism-based
Mus musculus [7] = species: Mus musculus; experiment: Effect on GLUT2 mRNA expression levels in liver of KK-Ay diabetic mouse model at 0.4 to 1.1 mg added daily to normal chow pellets for 10 weeks by qRT-PCR analysis; type: functional, organism-based
Mus musculus [8] = species: Mus musculus; experiment: Effect on PPARalpha mRNA expression levels in adipose tissue of KK-Ay diabetic mouse model at 0.4 to 1.1 mg added daily to normal chow pellets for 10 weeks by qRT-PCR analysis; type: functional, organism-based
Mus musculus [9] = species: Mus musculus; experiment: Induction of 3.3 mM glucose-stimulated insulin secretion in pancreatic islets isolated from KK-Ay diabetic mouse model at 1.1 mg added daily to normal chow pellets for 10 weeks followed by glucose stimulation of isolated pancreatic islets for 1 hr by radioimmunoassay relative to control; type: functional
Mus musculus [10] = species: Mus musculus; experiment: Effect on GLUT2 mRNA expression levels in muscle of KK-Ay diabetic mouse model at 0.4 to 1.1 mg added daily to normal chow pellets for 10 weeks by qRT-PCR analysis; type: functional, organism-based
Mus musculus [11] = species: Mus musculus; experiment: Effect on Hprt1 mRNA expression levels in liver of KK-Ay diabetic mouse model at 0.4 to 1.1 mg added daily to normal chow pellets for 10 weeks by qRT-PCR analysis; type: functional, organism-based
Mus musculus [12] = species: Mus musculus; experiment: Effect on Sirt1 mRNA expression levels in liver of KK-Ay diabetic mouse model at 0.4 to 1.1 mg added daily to normal chow pellets for 10 weeks by qRT-PCR analysis; type: functional, organism-based
Mus musculus [13] = species: Mus musculus; experiment: Effect on Pi3K mRNA expression levels in muscle of KK-Ay diabetic mouse model at 0.4 to 1.1 mg added daily to normal chow pellets for 10 weeks by qRT-PCR analysis; type: functional, organism-based
Mus musculus [14] = species: Mus musculus; experiment: Induction of […] glucose-stimulated insulin secretion in pancreatic islets isolated from KK-Ay diabetic mouse model at 0.4 mg added daily to normal chow pellets for 10 weeks followed by glucose stimulation of isolated pancreatic islets for 1 hr by radioimmunoassay relative to control; type: functional
Mus musculus [15] = species: Mus musculus; experiment: Toxicity in KK-Ay diabetic mouse model assessed as effect on average 24 hrs food consumption by measured food consumption at 1.1 mg added daily to normal chow pellets for 10 weeks (reference value: 4.7 +/- 0.2 g); type: organism-based; settings: in vivo, po
Mus musculus [16] = species: Mus musculus; experiment: Induction of 3.3 mM glucose-stimulated insulin secretion in pancreatic islets isolated from KK-Ay diabetic mouse model at 0.4 mg added daily to normal chow pellets for 10 weeks followed by glucose stimulation of isolated pancreatic islets for 1 hr by radioimmunoassay relative to control; type: functional
Mus musculus [17] = species: Mus musculus; experiment: Effect on PPARGC1alpha mRNA expression levels in muscle of KK-Ay diabetic mouse model at 0.4 to 1.1 mg added daily to normal chow pellets for 10 weeks by qRT-PCR analysis; type: functional, organism-based
Mus musculus [18] = species: Mus musculus; experiment: Effect on Adipor1 mRNA expression levels in muscle of KK-Ay diabetic mouse model at 0.4 to 1.1 mg added daily to normal chow pellets for 10 weeks by qRT-PCR analysis; type: functional, organism-based
Mus musculus [19] = species: Mus musculus; experiment: Effect on JNK1 mRNA expression levels in muscle of KK-Ay diabetic mouse model at 0.4 to 1.1 mg added daily to normal chow pellets for 10 weeks by qRT-PCR analysis; type: functional, organism-based
Mus musculus [20] = species: Mus musculus; experiment: Effect on triglyceride concentration in liver of KK-Ay diabetic mouse model at 0.4 to 1.1 mg added daily to normal chow pellets for 10 weeks; type: functional, organism-based
Mus musculus [21] = species: Mus musculus; experiment: Effect on G6PD mRNA expression levels in adipose tissue of KK-Ay diabetic mouse model at 0.4 to 1.1 mg added daily to normal chow pellets for 10 weeks by qRT-PCR analysis; type: functional, organism-based
Mus musculus [22] = species: Mus musculus; experiment: Toxicity in KK-Ay diabetic mouse model assessed as effect on body weight at 0.4 mg added daily to normal chow pellets for 4 weeks; type: organism-based; settings: in vivo, po, 672 h
Mus musculus [23] = species: Mus musculus; experiment: Effect on AMPKalpha2 mRNA expression levels in muscle of KK-Ay diabetic mouse model at 0.4 to 1.1 mg added daily to normal chow pellets for 10 weeks by qRT-PCR analysis; type: functional, organism-based
Mus musculus [24] = species: Mus musculus; experiment: Effect on Akt2 mRNA expression levels in liver of KK-Ay diabetic mouse model at 0.4 to 1.1 mg added daily to normal chow pellets for 10 weeks by qRT-PCR analysis; type: functional, organism-based
Mus musculus [25] = species: Mus musculus; experiment: Effect on Akt2 mRNA expression levels in adipose tissue of KK-Ay diabetic mouse model at 0.4 to 1.1 mg added daily to normal chow pellets for 10 weeks by qRT-PCR analysis; type: functional, organism-based
Mus musculus [26] = species: Mus musculus; experiment: Antidiabetic activity in KK-Ay diabetic mouse model assessed as mean fasting blood glucose level at 1.1 mg added daily to normal chow pellets for 10 weeks (reference value: 18 +/- 1.2 mmol/L); type: functional
Mus musculus [27] = species: Mus musculus; experiment: Effect on Hprt1 mRNA expression levels in muscle of KK-Ay diabetic mouse model at 0.4 to 1.1 mg added daily to normal chow pellets for 10 weeks by qRT-PCR analysis; type: functional, organism-based
Mus musculus [28] = species: Mus musculus; experiment: Effect on Lipc mRNA expression levels in muscle of KK-Ay diabetic mouse model at 0.4 to 1.1 mg added daily to normal chow pellets for 10 weeks by qRT-PCR analysis; type: functional, organism-based
Mus musculus [29] = species: Mus musculus; experiment: Effect on Abca1 mRNA expression levels in muscle of KK-Ay diabetic mouse model at 0.4 to 1.1 mg added daily to normal chow pellets for 10 weeks by qRT-PCR analysis; type: functional, organism-based
Mus musculus [30] = species: Mus musculus; experiment: Antidiabetic activity in KK-Ay diabetic mouse model assessed as increase in insulin levels in plasma at 0.4 mg added daily to normal chow pellets for 10 weeks by radioimmunoassay; type: functional, organism-based
Mus musculus [31] = species: Mus musculus; experiment: Antidiabetic activity in KK-Ay diabetic mouse model assessed as reduction in plasma glucagon levels at 0.4 mg added daily to normal chow pellets for 10 weeks relative to control by radioimmunoassay; type: functional; set-up: scale not given: the % may be the effect or the level left
Mus musculus [32] = species: Mus musculus; experiment: Effect on SOD2 mRNA expression levels in liver of KK-Ay diabetic mouse model at 0.4 to 1.1 mg added daily to normal chow pellets for 10 weeks by qRT-PCR analysis; type: functional, organism-based

For `C[C@@]12CCc3occc3[C@H]1CC[C@@]13C[C@H](CC[C@H]12)[C@@](O)(CO)C3`, the Activity (Mus musculus [1]) was “inactive”, the Activity (Mus musculus [2]) was “inactive” and the Activity (Mus musculus [3]) was “inactive”. For the same molecule, the Activity (Mus musculus [4]) was “inactive”, the Activity (Mus musculus [5]) was “inactive” and the Activity (Mus musculus [6]) was “inactive”. The Activity (Mus musculus [7]) was “inactive”, the Activity (Mus musculus [8]) was “inactive” and the Activity (Mus musculus [9]) was 44%. For the same molecule, the Activity (Mus musculus [10]) was “inactive”, the Activity (Mus musculus [11]) was “inactive” and the Activity (Mus musculus [12]) was “inactive”. The Activity (Mus musculus [13]) was “inactive”, the Activity (Mus musculus [14]) was 87% and the Activity (Mus musculus [15]) was 5.9 g. The Activity (Mus musculus [16]) was 67%, the Activity (Mus musculus [17]) was “inactive” and the Activity (Mus musculus [18]) was “inactive”. The Activity (Mus musculus [19]) was “inactive”, the Activity (Mus musculus [20]) was “inactive” and the Activity (Mus musculus [21]) was “inactive”. The Activity (Mus musculus [22]) was “Non-Toxic”, the Activity (Mus musculus [23]) was “inactive” and the Activity (Mus musculus [24]) was “inactive”. The Activity (Mus musculus [25]) was “inactive”, the Activity (Mus musculus [26]) was 12.9 mmol/L and the Activity (Mus musculus [27]) was “inactive”. For the same molecule, the Activity (Mus musculus [28]) was “inactive”, the Activity (Mus musculus [29]) was “inactive” and the Activity (Mus musculus [30]) was “inactive”. For the same molecule, the Activity (Mus musculus [31]) was 28% and the Activity (Mus musculus [32]) was “inactive”.
